Measurements reported in patent US8129527B2, “Analogs of dehydrophenylahistins and their therapeutic use” (Nereus Pharmacuticals, Inc., priority 2006, dated 2012).

What was measured:
[1] = system: P388 murine leukemia cells; assay: Cytotoxic effect in P388 cells; assay type: cell-based
Description: The cytotoxic effects of phenylahistin, dehydrophenylahistin and various derivatives of dehydrophenylahistin were examined in P388 murine leukemia cells, HT-29 human colon cells, and PC-3 prostatic adenocarcinoma cells.

[2] = system: A549 human non small cell lung tumor; assay: A549 Human Lung Tumor Xenograft Model; assay type: in vivo, nude mice; conditions: KPU-2 7.5 mg/kg ip qdx5 with taxotere
Protocol: Animals used were (exceptions are indicated for individual studies): female nude mice (nu/nu) between 5 and 6 weeks of age (˜20 g, Harlan); group size was 9-10 mice per group unless otherwise indicated.
Selected novel compounds were administered as monotherapy via the intraperitoneal (i.p.) route at the doses indicated for the individual study; for the combination studies the selected reference chemotherapy agents were injected 15-30 min prior to the compound.
Saline dilutions are used to achieve the injection concentrations used for the reference compounds.
Animals were implanted s.c. by trocar with fragments of A549 tumors harvested from s.c. growing tumors in nude mice hosts. When the tumor size reached 5 mm×5 mm (about 10-17 days) the animals were matched into treatment and control groups.

Structure (SMILES): CC(C)(C)c1[nH]cnc1/C=c1\[nH]c(=O)/c(=C/c2ccccc2)[nH]c1=O [KPU-2, tBu-dehydro-PLH]
- IC50 ([1]; Mus musculus, P388, read-out: IC50 (nM) P-388): 31.8 ± 5 nM
- cytotoxicity in P388 cells ([1]; in words): exhibited cytotoxicity in P388 cells
- TGI of the cotherapy group [2]: 74.4%
